The nature of assay [1]: Acetic acid writhing (abdominal constriction) test in mice. The note with it: for mean number of writhes: male Swiss Webster mice, 0.6% acetic acid i.p., saline control 21±1.
Assay [2] in a line: Middle cerebral artery occlusion with reperfusion (MCAO/R) stroke model. In kind it is in vivo. The note with it: male mice. Here is the method:
Several animal-based models for stroke have been proposed and validated, such as the artery occlusion and reperfusion model in male mice described by Zhang and coworkers (Microvasc. Res., 2009, 78(1):86-94). In this model, the animals are submitted to middle cerebral artery occlusion for a period of 60 minutes and then reperfusion is allowed. Cerebral infarction volume is measured by analyzing sections of the animal brain stained with triphenyltetrazolium chloride. Triphenyltetrazolium chloride is believed to be reduced to red formazan by mitochondrial enzymes, specifically succinate dehydrogenase (Lippold, 1982, Histochemistry 76:381-405). […] Therefore, TTC staining is extensively used in animal stroke experiments for quantitatively delineating the infarct volume (Memezawa et al., 1992, Exp. Brain Res. 89:67-78.; Hasegawa et al., 1995, J. Cereb. Blood Flow Metab. 15:179-187; Kuge et al., 1995, Stroke 26:1655-1658; Fuhai et al., 1997, J. Cereb. Blood Flow Metab. 17:1132-1135). […]
Cerebral infarction volume was measured 24 hours after MCAO/R. The animals were euthanized with an overdose of pentobarbital (200 mg/kg i.p.) 24 hours after MCAO and the brains were removed, and chilled on ice for 10 min to slightly harden the tissue. […]

A further assay deals with GPR35 (Homo sapiens, UniProt Q9HC97, S294R). Description: cell-based.
In another assay the target is T1, GPR55 receptors (Homo sapiens, UniProt Q9Y2T6).
T1 construct: expressed in transfected cells; host or cells: U2OS cells
Description: βarr2-GFP redistribution in U2OS cells co-expressing GPR55 (specificity control). In kind it is cell-based. Particulars: U2OS cells co-expressing βarr2-GFP and GPR55, 1 μM; data not shown.

In assay [3] the target is T2, CB1 cannabinoid receptors (Homo sapiens, UniProt P21554).
T2 construct: expressed in transfected cells; host or cells: U2OS cells
Briefly: βarr2-GFP redistribution in U2OS cells co-expressing CB1 (specificity control). The note with it: U2OS cells co-expressing β-arr2-GFP and CB1, 1 μM; data not shown. Format: cell-based.

Assay [4] deals with T3, vasopressin receptor (V2R) (Homo sapiens, UniProt P30518).
T3 construct: expressed in transfected cells; host or cells: U2OS cells
Description: β-arrestin2-GFP redistribution in U2OS cells overexpressing V2R (specificity control). Format: cell-based. Particulars: U2OS cells with β-arrestin2-GFP and overexpressed V2R, 1 μM. The procedure:
(§1) U20S cells expressing HA-GPR35a/βarr2-GFP (also known as UGPR35β cells) were plated in a 24-well plate onto coverslips that were coated with poly-D-lysine (0.02 mg/ml; Sigma-Aldrich, St. Louis, Mo., USA) for 1 hour. Cells were maintained at 37° C., 5% CO2 until ready for experiment (90% confluent). Cells were washed once with Hanks' balanced salt solution (HBSS, Cellgro, Mediatech, Inc, Manassas, Va., USA) comprising CaCl2 0.14 g/L, KCl 0.4 g/L, KH2PO4 0.06 g/L, MgSO4 0.097 g/L, NaCl 8 g/L, Na2HPO4 0.047 g/L, NaHCO3 0.35 g/L, and D-glucose 1.0 g/L. For receptor activation, agonist-evoked redistribution of βarr2-GFP was measured by applying the drug for 40 minutes. For measuring the effects of antagonist, agonist and antagonist were co-applied.
(§2) Cells were then fixed with 4% paraformaldehyde for 20 minutes at room temperature, followed by three washes with HBSS.
In that panel, fluorescence was observed close to the cell membrane. As a control for drug specificity, 1 μM pamoic acid was added to a U2OS cell line containing β-arrestin2-GFP and overexpressed vasopressin receptor (V2R).

In another assay the target is T4, rat GPR35 (Rattus norvegicus, UniProt Q33BM1).
T4 construct: host or cells: CHO cells
Particulars: CHO cells co-transfected with rat GPR35, Aequorin readout; Wang et al. 2006; read-out: EC50 for receptor activation; cited from earlier work.

For another assay, the target named is T5, mouse GPR35 (Mus musculus, UniProt Q9ES90).
T5 construct: host or cells: CHO cells
The note with it: CHO cells co-transfected with mouse GPR35, Aequorin readout; Wang et al. 2006; read-out: EC50 for receptor activation; cited from earlier work.

Another assay concerns the target GPR35a (Homo sapiens, UniProt Q9HC97, S294R). Description: β-arrestin2-GFP redistribution/aggregation in UGPR35β cells. The note with it: mean (95% confidence interval in brackets in the text), read-out: EC50 for β-arrestin2 aggregation. Details: expressed in transfected cells. Format: cell-based.
Description: This cellular assay utilizes the intracellular β-arrestin protein as a reporter of receptor activity. […] Upon agonist-mediated GPCR activation, β-arrestins rapidly redistribute en masse to ligand-activated plasma membrane receptors (on the other hand, β-arrestins remain in the cytosol upon antagonist binding to the receptor). Activated GPCR/β-arrestin complexes will concentrate in clathrin-coated pits and/or internal vesicles where most GPCRs normally undergo internalization. At this juncture, the β-arrestin either (i) dissociates and returns to the cytoplasm, or (ii) further redistributes with the receptor into an intracellular endosomal vesicle, depending on the receptor type. It is the agonist-induced redistribution of β-arrestin-GFP into progressively smaller compartments (cytosolic compartment>plasma membrane>coated pit>endosomal compartment) that enables imaging of receptor activation.
This cell line is herein referred to as UGPR35β. Selected cells were maintained at 200 μg/ml G418® and 100 μg/ml Zeocin® at 37° C. and 5% CO2.
as §1, §2
βarr2-GFP aggregates were identified by a wavelet-based, Microsoft Windows-compatible computer program written in the MatLab programming environment. A program algorithm extracts from two dimensional images those pixels that generate objects of interest that fall within a predetermined range of sizes and intensities and that are embedded among widely varying local backgrounds (L. Barak, available from the Duke University GPCR Assay Bank). Concentration-effect curves for agonist-mediated receptor activation were analyzed by non-linear regression techniques using GraphPad Prism 4.0 software (GraphPad) and data were fitted to sigmoidal dose-response curves to obtain EC50 or IC50 values. Statistical analysis was performed using one-way analysis of variance (ANOVA) followed by Dunnett's post-test or two-tailed unpaired student t test. P values of <0.05 are considered significant.
A prototypical U2OS osteosarcoma cell line that permanently expresses β-arrestin-GFP and N-terminal triple HA-tagged human GPR35a was used to screen ligands for agonism or antagonism against the GPR35 receptor. […] Endogenous receptors are invisible to the assay because there are too few endogenous receptors of any type compared to the number of β-arrestin molecules in the cell to provide a measurable response.
Upon agonist-mediated GPCR activation, β-arrestins rapidly redistribute en masse to ligand-activated plasma membrane receptors, and then the activated GPCR/arrestin complexes concentrate in clathrincoated pits and/or internal vesicles.
Concentration response curves for β-arrestin2 aggregation were obtained for compounds of interest. For this study, UGPR35β cells were treated with different concentrations of a compound of interest and images of the cells (acquired in triplicate in three or more independent experiments) were analyzed for fluorescence.

A further assay has as its target T6, human GPR35 (Homo sapiens, UniProt Q9HC97).
T6 construct: host or cells: CHO cells
Particulars: CHO cells co-transfected with human GPR35, Aequorin readout; Wang et al. 2006; read-out: EC50 for receptor activation; cited from earlier work.

The structures appear in SMILES notation.

T1 sequence (Q9Y2T6 whole entry): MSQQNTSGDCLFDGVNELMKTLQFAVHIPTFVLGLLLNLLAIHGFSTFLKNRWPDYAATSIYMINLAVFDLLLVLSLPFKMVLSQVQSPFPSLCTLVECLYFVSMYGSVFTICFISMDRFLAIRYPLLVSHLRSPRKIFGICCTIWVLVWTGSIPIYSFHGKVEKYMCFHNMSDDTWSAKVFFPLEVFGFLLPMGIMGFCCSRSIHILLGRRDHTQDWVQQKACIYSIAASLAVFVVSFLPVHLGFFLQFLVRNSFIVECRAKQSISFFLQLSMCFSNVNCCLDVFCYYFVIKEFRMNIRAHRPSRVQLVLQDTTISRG
T4 sequence (Q33BM1 1-306): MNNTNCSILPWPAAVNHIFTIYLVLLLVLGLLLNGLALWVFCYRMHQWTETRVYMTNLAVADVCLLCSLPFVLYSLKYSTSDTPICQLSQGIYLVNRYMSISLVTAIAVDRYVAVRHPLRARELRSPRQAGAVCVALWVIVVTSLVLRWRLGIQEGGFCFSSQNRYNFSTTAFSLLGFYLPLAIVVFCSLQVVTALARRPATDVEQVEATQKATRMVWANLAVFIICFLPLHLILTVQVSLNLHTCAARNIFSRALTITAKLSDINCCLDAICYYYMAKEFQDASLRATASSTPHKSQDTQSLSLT
T6 sequence (Q9HC97 whole entry): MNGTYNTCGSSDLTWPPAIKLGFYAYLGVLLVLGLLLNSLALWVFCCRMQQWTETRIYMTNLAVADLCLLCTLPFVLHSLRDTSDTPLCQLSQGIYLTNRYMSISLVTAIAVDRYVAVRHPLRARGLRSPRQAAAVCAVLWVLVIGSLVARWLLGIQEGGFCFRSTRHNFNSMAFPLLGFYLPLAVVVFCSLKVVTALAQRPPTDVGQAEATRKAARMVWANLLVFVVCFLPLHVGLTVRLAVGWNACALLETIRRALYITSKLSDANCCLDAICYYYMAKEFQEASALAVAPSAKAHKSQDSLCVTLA
T5 sequence (Q9ES90 whole entry): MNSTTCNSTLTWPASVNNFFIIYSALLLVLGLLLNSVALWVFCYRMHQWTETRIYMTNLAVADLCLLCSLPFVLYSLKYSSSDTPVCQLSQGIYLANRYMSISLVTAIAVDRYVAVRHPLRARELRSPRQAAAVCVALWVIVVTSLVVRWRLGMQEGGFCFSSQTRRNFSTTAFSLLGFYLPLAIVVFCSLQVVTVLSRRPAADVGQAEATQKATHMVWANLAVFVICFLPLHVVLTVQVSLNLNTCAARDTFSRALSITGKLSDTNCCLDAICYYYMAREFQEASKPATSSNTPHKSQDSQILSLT
T2 sequence (P21554 whole entry): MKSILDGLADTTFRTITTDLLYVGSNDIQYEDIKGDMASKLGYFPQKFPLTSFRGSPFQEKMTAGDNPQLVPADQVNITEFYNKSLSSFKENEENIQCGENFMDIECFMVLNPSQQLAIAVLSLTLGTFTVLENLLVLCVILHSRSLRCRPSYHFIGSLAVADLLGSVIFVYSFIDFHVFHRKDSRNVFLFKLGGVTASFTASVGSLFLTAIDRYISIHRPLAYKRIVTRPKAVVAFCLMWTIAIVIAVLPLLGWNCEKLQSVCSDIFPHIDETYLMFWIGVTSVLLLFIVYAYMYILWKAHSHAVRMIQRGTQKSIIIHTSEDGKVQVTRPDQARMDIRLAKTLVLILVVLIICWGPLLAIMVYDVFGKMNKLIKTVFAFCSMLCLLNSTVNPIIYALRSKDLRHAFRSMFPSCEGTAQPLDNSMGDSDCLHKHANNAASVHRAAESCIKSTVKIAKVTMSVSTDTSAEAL
T3 sequence (P30518 whole entry, species assumed): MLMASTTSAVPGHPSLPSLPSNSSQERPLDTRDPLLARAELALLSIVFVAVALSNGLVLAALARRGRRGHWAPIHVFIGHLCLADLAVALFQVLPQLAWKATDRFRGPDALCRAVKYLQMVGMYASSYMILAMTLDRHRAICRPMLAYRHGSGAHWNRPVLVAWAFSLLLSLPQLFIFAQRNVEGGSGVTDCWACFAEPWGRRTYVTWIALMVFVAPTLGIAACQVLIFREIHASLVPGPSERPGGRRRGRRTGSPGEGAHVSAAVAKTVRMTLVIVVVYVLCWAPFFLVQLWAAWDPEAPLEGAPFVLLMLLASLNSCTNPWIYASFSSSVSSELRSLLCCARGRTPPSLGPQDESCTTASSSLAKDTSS
Sequence of GPR35 (Q9HC97 whole entry S294R): as the sequence (Q9HC97 whole entry) above, with S294R counted along it
Sequence of GPR35a (Q9HC97 whole entry S294R): as the sequence (Q9HC97 whole entry) above, with S294R counted along it

Turning to `O=C(O)c1cc2ccccc2c(Cc2c(O)c(C(=O)O)cc3ccccc23)c1O` [disodium pamoate], the “mean number of writhes” value stood at 14±2 in assay [1] (25 mg/kg s.c.), 11±2 in assay [1] (50 mg/kg s.c.) and 0.4±0.2 in assay [1] (100 mg/kg s.c.). For the same compound, the infarction percentage entry in [2] (given one hour prior to reperfusion, measured 24 hours after MCAO/R, control about 27%) is on record as “about 17%”. Moreover, the “reduction in infarction percentage” value in assay [2] (versus untreated control) is recorded as “about 37%”.

`CN1CCCN=C1/C=C/c1cccs1` [pyrantel pamoate]: the EC50 on GPR35 is 0.0887 µM.

Consider `O=C(O)c1cc2ccccc2c(Cc2c(O)c(C(=O)O)cc3ccccc23)c1O` [Compound 1, 4-[(3-carboxy-2-hydroxynaphthalen-1-yl)methyl]-3-hydroxynaphthalene-2-carboxylic acid], for which the “antinociceptive effect, in words” value in [1] (mice, s.c., dose of 100 mg/kg) was “essentially complete antinociception”. In addition, in assay [1] (mice, s.c., given as disodium pamoate, 95% CL 28.3-90.3 mg/kg), the “subcutaneous dose causing 50% antinociception” value came out at 40.5 mg/kg. The βarr2-GFP response result (on GPR55 receptors; in [3]) was “no response was observed” each time. The “change in β-arrestin2-GFP fluorescence distribution” value in assay [4] is recorded as “no change in fluorescence distribution was observed”.

Regarding `O=C(O)c1cc(=O)c2ccccc2[nH]1` [kynurenic acid, 2-carboxy-4-hydroxy-quinoline], the half-maximal effective concentration (EC50) at rat GPR35 was 7 µM; on mouse GPR35, 11 µM; at GPR35a it was 217 µM; on human GPR35, 40 µM.
